Assay results taken from patent publication US20120004244A1, “Bis Aromatic Compounds for Use as LTC4 Synthase Inhibitors” (BIOLIPOX AB, priority 2009, published 2012).

Target: T1, Recombinant human LTC4 synthase (Homo sapiens, UniProt Q16873)
T1 construct: made in house; host or cells: Pichia pastoris ('Piccia pastoralis' [sic])
T1 sequence (Q16873 1-150): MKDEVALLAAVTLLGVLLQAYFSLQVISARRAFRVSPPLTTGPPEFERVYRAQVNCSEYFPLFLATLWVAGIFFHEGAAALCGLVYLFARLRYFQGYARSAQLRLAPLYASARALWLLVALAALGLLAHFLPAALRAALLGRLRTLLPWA
Assay: LTC4 synthase in vitro assay (LTA4 to LTC4, HTRF detection)
Assay type: biochemical
Conditions: for inhibition at 10 µM: 5 min, total concentration of title compound in the assay 10 μM
Method: In the assay, LTC4 synthase catalyses the reaction where the substrate LTA4 is converted to LTC4. Recombinant human LTC4 synthase is expressed in Piccia pastoralis and the purified enzyme is dissolved in 25 mM tris-buffer pH 7.8 supplemented with 0.1 mM glutathione (GSH) and stored at −80° C. The assay is performed in phosphate buffered saline (PBS) pH 7.4 and 5 mM GSH in 384-well plates.
The following is added chronologically to each well:
1.48 μL LTC4 synthase in PBS with 5 mM GSH. The total protein concentration in this solution is 0.5 μg/mL. 2. 1 μL inhibitor in DMSO (final concentration 10 μM). 3. Incubation of the plate at room temperature for 10 min. 4. 1 μL LTA4 (final concentration 2.5 μM). 5. Incubation of the plate at room temperature for 5 min. 6. 10 μL of the incubation mixture is analysed using homogenous time resolved fluorescent (HTRF) detection.

Row | Structure (SMILES) | IC50 [µM] | inhibition at 10 µM [%] | inhibition at 3 µM (compound concentration 3 μM) [%]
1 | CN(c1ccc(Cl)cc1)c1ccc(C(=O)c2ccc(C(=O)C3CCCO3)c(C(=O)O)c2)nc1 (centres unmarked) [5:25, 5-{5-[(4-Chlorophenyl)(methyl)amino]picolinoyl}-2-tetrahydrofuran-2-carbonylbenzoic acid] | 0.86 |  | 
2 | O=C(O)c1cc(C(=NO)c2ccc(N(CC3CC3)c3ccc(Cl)cc3)cn2)ccc1Oc1ccccc1 (mixture of isomers) [Example 14, 5-({5-[(4-Chlorophenyl)(cyclopropylmethyl)amino]-2-pyridyl}(hydroxyimino)-methyl)-2-phenoxybenzoic acid] | 1.11 |  | 
3 | O=C(c1ccc(Oc2ccccc2)c(C(=O)O)c1)c1ccc(N(CC2CCCC2)c2ccc(Cl)cc2)cn1 [1:6, 5-{5-[(4-Chlorophenyl)(cyclopentylmethyl)amino]picolinoyl}-2-phenoxybenzoic acid] | 0.061 | 100 | 
4 | O=C(c1ccc(Oc2ccccc2)c(C(=O)O)c1)c1ccc(Nc2ccc(Cl)cc2)cn1 [1:29, 5-[5-(4-Chlorophenylamino)picolinoyl]-2-phenoxybenzoic acid] | 0.282 |  | 
5 | O=C(c1ccc(Oc2ccccc2F)c(C(=O)O)c1)c1ccc(N(CC(F)(F)F)c2ccc(Cl)cc2F)cn1 [1:35, 5-{5-[(4-Chloro-2-fluorophenyl)-(2,2,2-trifluoroethyl)amino]picolinoyl}-2-(2-fluorophenoxy)benzoic acid] | 0.621 |  | 
6 | CN(c1ccc(Cl)cc1)c1ccc(C(=O)c2ccc(NC3CCC(F)(F)CC3)c(C(=O)O)c2)nc1 [2:15, 5-{5-[(4-Chlorophenyl)(methyl)amino]picolinoyl}-2-(4,4-difluorocyclohexylamino)benzoic acid] | 0.184 |  | 
7 | COc1ccc(C(=O)Nc2ccc(C(=O)c3ccc(N(CC4CC4)c4ccc(Cl)cc4)cn3)cc2C(=O)O)c(OC)c1 [3:22, 5-{5-[(4-Chlorophenyl)(cyclopropylmethyl)amino]picolinoyl}-2-(2,4-dimethoxy-benzamido)benzoic acid] | 0.016 |  | 
8 | CN(c1ccc(Cl)cc1)c1ccc(C(=O)c2ccc(C(=O)c3ccc4c(c3)OCCO4)c(C(=O)O)c2)nc1 [5:26] | 0.027 |  | 
9 | COc1cccc(C(=O)Nc2ccc(C(=O)c3ccc(N(C)Cc4ccc(Cl)cc4)cn3)cc2C(=O)O)c1 [3:37, 5-{5-[(4-Chlorobenzyl)(methyl)amino]picolinoyl}-2-(3-methoxybenzamido)-benzoic acid] | 0.021 |  | 
10 | CN(c1ccc(Cl)cc1)c1ccc(C(=O)c2ccc(NC(=O)c3ccc4c(c3)OCCO4)c(C(=O)O)c2)nc1 [3:19, 5-{5-[(4-Chlorophenyl)(methyl)amino]picolinoyl}-2-(3,4-ethylenedioxy-benzamido)benzoic acid] | 0.017 |  | 
11 | CN(c1ccc(Cl)cc1)c1ccc(C(=O)c2ccc(NC(=O)c3ccc(C(F)(F)F)cc3)c(C(=O)O)c2)nc1 [3:1, 5-{5-[(4-Chlorophenyl)(methyl)amino]picolinoyl}-2-(4-trifluoromethylbenzamido)-benzoic acid] | 0.033 | 100 | 
12 | CN(c1ccc(C(=O)c2ccc(Oc3ccccc3)c(C(=O)O)c2)nc1)c1cccc(C(F)(F)F)c1 [1:11, 5-{5-[(Methyl)(3-trifluoromethylphenyl)amino]picolinoyl}-2-phenoxybenzoic acid] | 0.176 | 99 | 
13 | COc1cccc(C(=O)Nc2ccc(C(=O)c3ccc(N(C)c4ccccc4)cn3)cc2C(=O)O)c1 [3:33, 2-(3-Methoxybenzamido)-5-{5-[(methyl)(phenyl)amino]picolinoyl}benzoic acid] | 0.226 |  | 
14 | CN(c1ccc(Cl)cc1)c1ccc(C(=O)c2ccc(-n3cccc3-c3ccccc3)c(C(=O)O)c2)nc1 [20:2, 5-{5-[(4-Chlorophenyl)(methyl)amino]picolinoyl}-2-(2-phenylpyrrol-1-yl)benzoic acid] | 0.064 |  | 
15 | COc1ccc(Oc2ccc(C(=O)c3ccc(N(CC4CC4)c4ccc(Cl)cc4)cn3)cc2C(=O)O)cc1 [1:25, 5-{5-[(4-Chlorophenyl)(cyclopropylmethyl)amino]picolinoyl}-2-(4-methoxyphenoxy)benzoic acid] | 0.094 |  | 
16 | CN(c1ccc(Cl)cc1)c1ccc(C(=O)c2ccc(NS(=O)(=O)c3cccs3)c(C(=O)O)c2)nc1 [4:3, 5-{5-[(4-Chlorophenyl)(methyl)amino]picolinoyl}-2-(2-thienylsulfonamido)benzoic acid] | 0.04 | 99 | 
17 | CN(c1ccc(Cl)cc1)c1ccc(C(=O)c2ccc(NC3CCOCC3)c(C(=O)O)c2)nc1 [2:16, 5-{5-[(4-Chlorophenyl)(methyl)amino]picolinoyl}-2-(4-tetrahydropyranylamino)benzoic acid] | 0.333 |  | 
18 | CN(c1ccc(Cl)cc1)c1ccc(C(=O)c2ccc(-n3cccc3-c3cccc(Cl)c3)c(C(=O)O)c2)nc1 [20:1, 5-{5-[(4-Chlorophenyl)(methyl)amino]picolinoyl}-2-{2-(3-chlorophenyl)pyrrol-1-yl}benzoic acid] | 0.163 |  | 
19 | COc1ccccc1Nc1ccc(C(=O)c2ccc(N(C)c3ccc(Cl)cc3)cn2)cc1C(=O)O [2:14, 5-{5-[(4-Chlorophenyl)(methyl)amino]picolinoyl}-2-(2-methoxyphenylamino)benzoic acid] | 0.068 |  | 
20 | CN(c1ccc(Cl)cc1)c1ccc(C(=O)c2ccc(Nc3ccccc3)c(C(=O)O)c2)nc1 [2:21, 5-{5-[(4-Chlorophenyl)(methyl)amino]picolinoyl}-2-phenylaminobenzoic acid] | 0.139 |  | 
21 | CCCCOc1ccc(S(=O)(=O)Nc2ccc(C(=O)c3ccc(N(C)c4ccc(Cl)cc4)cn3)cc2C(=O)O)cc1 [4:2, 2-(4-Butoxyphenylsulfonamido)-5-{5-[(4-chlorophenyl)(methyl)amino]picolinoyl}-benzoic acid] | 0.023 |  | 100
22 | O=C(c1ccc(Oc2ccccc2)c(C(=O)O)c1)c1ccc(OCc2ccc(C(F)(F)F)cc2)cn1 [11:6, 2-Phenoxy-5-[5-(4-trifluoromethylbenzyloxy)picolinoyl]benzoic acid] | 0.351 |  | 
23 | CN(c1ccc(Cl)cc1)c1ccc(C(=O)c2ccc(NCc3ccc(Cl)cc3Cl)c(C(=O)O)c2)nc1 [2:11, 5-{5-[(4-Chlorophenyl)(methyl)amino]picolinoyl}-2-(2,4-dichlorobenzylamino)benzoic acid] | 0.088 |  | 
24 | CN(c1ccc(C(=O)c2ccc(Oc3ccccc3)c(C(=O)O)c2)nc1)c1ccc(F)c(F)c1 [1:16, 5-{5-[(3,4-Difluorophenyl)(methyl)amino]picolinoyl}-2-phenoxybenzoic acid] | 0.387 | 98 | 
25 | O=C(c1ccc(Oc2ccccc2)c(C(=O)O)c1)c1ncc(N(CC2CC2)c2ccc(Cl)cc2)cn1 [10:4, 5-{5-[(4-Chlorophenyl)(cyclopropylmethyl)amino]pyrimidine-2-carbonyl}-2-phenoxybenzoic acid] | 0.132 |  | 
26 | CN(c1ccc(Cl)cc1)c1ccc(C(=O)c2ccc(Oc3cccc(Cl)c3)c(C(=O)O)c2)nc1 [1:3, 2-(3-Chlorophenoxy)-5-{5-[(4-chlorophenyl)(methyl)amino]picolinoyl}benzoic acid] | 0.124 | 98 | 
27 | CN(c1ccc(C(F)(F)F)cc1)c1ccc(C(=O)c2ccc(Oc3ccccc3)c(C(=O)O)c2)nc1 [1:15, 5-{5-[(Methyl)(4-trifluoromethylphenyl)amino]picolinoyl}-2-phenoxybenzoic acid] | 0.465 | 99 | 
